# Data as given in patent US20090062255A1, “TUMOR-TARGETING EVALUATION METHODOLOGY AND COMPOUNDS RELATED THERETO” (THALLION PHARMACEUTICALS INC., priority 2007, published 2009).
# Values joined by “and” are separate entries in the source; they are usually repeats but may differ in a detail not shown here. Identical values can stand only once.
# Key:
# [1] = ECO-4601 concentrations in plasma and tissues, rat C6 orthotopic brain tumors; assay type: in vivo; settings: individual rats
# Procedure: Rat C6 glioma cells were purchased from the American Type Culture Collection (Manessa, Va.) and grown in Dulbecco's modified Eagle's medium (DMEM) supplemented with 10% FBS, 125 U/mL penicillin G, 125 μg/mL streptomycin sulfate, and 2.2 μg/mL amphotericin B (Fungizone). All culture reagents were obtained from Gibco BRL (Invitrogen Burlington, ON, Canada). Cultures were grown in monolayers and maintained at 37° C. in a humidified atmosphere of 5% CO2. Upon reaching confluency, spheroids were prepared using the hanging drop method previously described by Del Duca et al. ((2004) J. Neurooncol 67, p 295). Briefly, 20 μl drops of DMEM containing 15,000 cells each were suspended from the lids of culture dishes and the resulting aggregates were transferred to culture dishes base-coated with agar after 72 hours. The resulting spheroids were adequate for in vivo implantation after 48 hours of incubation on agar.
# Male, Sprague-Dawley rats (250-300 g) (Charles River Canada, St Constant, QC) were anesthetized with 50 mg/kg ketamine and 10 mg/kg xylazine. The right cortical surface in the parietal-occipital region was exposed by craniectomy using a high-powered drill (DREMEL, USA) and the underlying dura and its vessels were carefully removed under a surgical microscope. A piece of the cortex was removed to expose the underlying white matter and a single speroid containing rat C6 tumor cells was placed into the surgical defect. The craniectomy was covered with bone wax (Ethicon, Peterborough, Canada) and the overlying skin sutured. Following recovery from anesthesia, the animals were fed and had access to water ad libitum.
# Following completion of in vivo studies, animals were sacrificed by anesthetic overdose and decapitated. Brain, tumor, and liver were snap-frozen in liquid nitrogen and stored frozen (−70° C.±10° C.). For blood samples, each blood sample was collected into a K2-EDTA tube and kept on wet ice for a maximum of 30 minutes. Blood samples were centrifuged under refrigeration (2 to 8° C.) for 10 minutes at 1,500 g (RCF). A volume of 25 μL of aqueous 4% w/v L-ascorbic acid was added to a volume of 225 μL of rat plasma in a clean tube, and the samples were thoroughly mixed by inversion. A volume of 125 uL of the resulting mixture was transferred to a separate tube for bioanalysis, while the remaining mixture was maintained as a backup, and both the bioanalysis and back-up portions were frozen on dry ice and stored frozen (−70° C.±10° C.).
# Rat plasma (50 μL) was mixed with 500 μL of acetone containing 100 ng/mL of the internal standard (Compound 2). The mixture was vortexed for 20 seconds, incubated 10 min at RT and centrifuged at 12,000×g for 10 minutes. The supernatants were transferred into HPLC injection vials and 20 μL were analyzed by tandem liquid chromatography/mass spectrometry. The chromatography was achieved on a Luna C18 column (30×4.6 mm, 5 μm particles; Phenomenex, Torrance, Calif.) with a mobile phase consisting of 100% methanol: 0.5% formic acid in water (85:15) at a flow rate of 1 mL/min. Flow was split 1:10 prior to introduction into the ESI source. The nebulization was assisted by and octagonal jet stream of nitrogen heated at […] and set at a flow of 4 L/min. The ion source voltage (ISV) was at 4000 V in positive mode, declustering potential (OR-QO) was set to 20 V, and the collision energy (Elab) was set to 25 V. The mass transition monitered for ECO-4601 and the internal standard were m/z 463→271 and 477→273, respectively. […]
# [2] = target: T1, PBR (Rattus norvegicus, UniProt P16257); test: In vivo PBR occupancy by PET (11C-(R)-PK11195) following IV bolus and CIV infusion
# T1 construct: from tissue; host or cells: orthotopic rat C6 glioma in Sprague-Dawley rats, in vivo
# Procedure: (R)-1-(2-chlorophenyl)-N-methyl-N-(1-methyl-propyl)-3-isoquinoline carboxamide (R N-desmethyl PK11195), the precursor for the radioisotope-labeled (R) —PK11195, was purchased from ABX (Radeburg, Germany). The synthesis of ^11C-(R)-PK11195 was accomplished by a modification of the method of Camsonne et al. (J. Label. Compd. Radiopharm., 21: 985-991,1984). Briefly, ^11C-methyl iodide (^11C—CH3I) was transferred by a stream of nitrogen gas at a flow rate of 10 ml/min into a reaction medium containing 1 mg or R—N-desmethyl PK11195 previously dissolved in 0.5 mL of dimethylsulfoxide (DMSO) and about 20 mg of sodium hydroxide. The reaction was initiated at room temperature, with a bubbling of the ^11C—CH3I being continued over a 5 minute period. After bubbling was complete, the reaction mixture was left standing for 5 minutes. Purification was performed by high pressure liquid chromatography (HPLC) using a reverse-phase C18 column and a methanol:ammonium formate (20 mM) (80:20) mixture and a mobile phase at a flow rate of 3 mL/min. ^11C—(R) —PK11195 was eluted at 11 minutes and obtained with a specific radioactivity of […].
# The above study was repeated but his time ECO-4601 was administered as a bolus push followed by a continuous intra-venous (CIV) infusion of ECO-4601 obtained in the steady-state condition through the second 11C-PK11195 PET scan. […]
# To determine a mean tumor binding potential (B.P.) (baseline) and the mean B.P., the simplified reference tissue method was utilized comparing the ratio of tumor to normal brain. As a result, mean tumor binding potential (B.P.) (baseline) was calculated to be 2.19±0.16 (mean±SEM) and the mean B.P. (ECO-4601) was calculated to be 0.14±0.13 (mean±SEM).
# [3] = test system: ERK phosphorylation, human pancreatic MiaPaCa-2 cell line (mutated K-Ras); test: EGF-stimulated ERK phosphorylation in MiaPaCa-2 cells; assay type: cell-based
# Description: To evaluate whether ECO-4601 interferes with K-Ras signalling, the human pancreatic MiaPaCa-2 cell line, a tumor cell line known to express mutated K-Ras, was employed.
# [4] = in vivo; settings: CD-1 nu/nu, mouse, iv
# [5] = individual rats, IV bolus 30 mg/kg then CIV 5 mg/kg/hour, listed as ECO-4601
SMILES,Ratio Tumor/Brain [1],Tumor [1],Brain ([1]; C6 orthotopic brain tumor),Liver ([1]; C6 orthotopic brain tumor),Pasma ng/mL ([1]; C6 orthotopic brain tumor),"mean tumor binding potential (B.P.) after compound ([2]; CIV infusion, mean±SEM, n=6)","reduction of PBR occupancy for 11C-(R)-PK11195 binding, average ([2]; CIV infusion, n=6) [%]","% PBR occupancy [2, 5]","Binding Potential (ECO-4601) [2, 5]",inhibition of EGF-stimulated ERK phosphorylation [3],MTD [4] [mg/kg]
"CC(C)=CCC/C(C)=C/CC/C(C)=C/CN1C(=O)c2cccc(O)c2Nc2c(O)cc(O)cc21 [Compound 1, 10-farnesyl-4,6,8-trihydroxy-5,10-dihydrodibenzo[b,e][1,4]diazepin-11-one]",10.1 and 2.1 and 5.2 and 11.30 and 3.5,2701 ng/g and 239 ng/g and 509 ng/g and 2891 ng/g and 1145 ng/g,249 ng/g and 115 ng/g and 98 ng/g and 254 ng/g and 327 ng/g,994 ng/g and 164 ng/g and 1083 ng/g and 2767 ng/g and 123 ng/g,"13,088 ng/mL and 2,657 ng/mL and 5,727 ng/mL and 10,212 ng/mL and 1,177 ng/mL",0.14±0.13,91.67,100% and 30% and 50%,0 (5×) and 1.81 and 0.84,dose and time dependent inhibition,
"CC(C)=CCC/C(C)=C/CC/C(C)=C/CN1C(=O)c2cccc(O)c2N(C)c2c(O)cc(O)cc21 [Compound 2, 10-farnesyl-4,6,8-trihydroxy-5-methyl-5,10-dihydro-dibenzo[b,e][1,4]diazepin-11-one]",,,,,,,,,,,> 100
